The numbers were not newly measured in publication PMC5131364, “Pharmacologic modulation of RORγt translates to efficacy in preclinical and translational models of psoriasis and inflammatory arthritis” (Scientific Reports, 2016), which cites them from elsewhere.

Data set [1] has as its system mouse CIA model. On the set-up: method as in PMID 24574218. The conditions noted are these: mouse CIA model ref 49; cited from earlier work.
Data set [2] deals with psoriatic skin. The conditions noted are these: after 12 weeks of treatment ref 70; cited from earlier work.

Regarding `OC(c1ccc(-c2ccc(CN3CCN(Cc4ccncc4)CC3)cc2)c(F)c1)(C(F)(F)F)C(F)(F)F` [SR2211], the “joint inflammation and clinical scores” value in data set [1] is “reduce joint inflammation”.

Turning to guselkumab: anti-IL-23 mAb, the “IL-17A and IL-17F gene expression in psoriatic skin” value in data set [2] is on record as “significant inhibition”.
